Laboratory results from patent US20100172845A1, “COMPOSITIONS AND METHODS FOR TREATING MYCOBACTERIAL INFECTIONS” (BOARD OF REGENTS OF THE UNIVERSITY OF TEXAS SYSTEM, priority 2007, published 2010).
Entries after “also recorded” stand apart in the source; their conditions may differ.

Columns and labels:
[1] = system: Erdman strain of MTB; assay: Effect of surfactants on corded state and number of MTB in vitro (microscopy, acid-fast staining); type: cell-based, Mycobacterium tuberculosis; details: for bactericidal action on MTB: 1% (wt/vol.), OG 24 hr, DDM 2 hr
[2] = mouse, in vivo
[3] = system: MTB; assay: Growth of MTB in the presence of surfactant; type: cell-based, Mycobacterium tuberculosis; details: 0.3% surfactant
[4] = 1% (wt/vol.) surfactant, 2 hr exposure
[5] = 1% (wt/vol.) surfactant, 30 min exposure

Row | SMILES | elimination of bacteria [1, 4] | loss / reduction of cording of MTB [1, 4] | bactericidal action on MTB [1] | body weight versus control animals [2] | histological examination of spleens and livers [2] | histopathological differences of lung, liver and spleen tissues versus control [2] | leukocyte count and cytologic composition of the lavage fluid [2] | tolerability by the lungs [2] | reversal of cording of corded MTB preparation ([1]; 1% surfactant, over the time period of the study) | growth of MTB and mycolic acid coat [3] | number of bacteria in the background (higher power view) [1, 5] | reversal of aggregation / number of cords of MTB [1, 5] | decrease in the corded state of MTB ([1]; 1% (wt/vol.) surfactant, 24 hr incubation) | bacteria eliminated (50× image) ([1]; 1% (wt/vol.) surfactant, within 24 hours of treatment)
1 | CCCCCCCCCCCCO[C@@H]1O[C@H](CO)[C@@H](O[C@H]2O[C@H](CO)[C@@H](O)[C@H](O)[C@H]2O)[C@H](O)[C@H]1O [DDM, n-dodecyl-β-D-maltoside] | elimination of most of the bacteria | reduce cording to a similar extent of OG after 24 hr exposure; also recorded: rapid loss of cording | bactericidal | no difference in the body weight | did not reveal any visible changes | no identifiable histopathological differences | no change were found | well tolerated by the lungs | – | – | – | – | – | –
2 | CCCCCCCCCCCCCCCC(=O)OC[C@H](COP(=O)([O-])OCC[N+](C)(C)C)OC(=O)CCCCCCCCCCCCCCC [DPPC, 1,2-dipalmitoyl-sn-3-glycerophosphoryl choline, reference compound] | – | – | – | – | – | – | – | – | did not reverse cording | – | – | – | – | –
3 | CCCCCCCCO[C@@H]1O[C@H](CO)[C@@H](O)[C@H](O)[C@H]1O [OG, n-octyl-β-D-glucoside] | – | – | acts as a bacteriocide; also recorded: bactericidal | no difference in the body weight | did not reveal any visible changes | no identifiable histopathological differences | no change were found | well tolerated by the lungs | – | will grow in the presence of 0.3% OG but are not surrounded by their extensive coat of mycolic acid | significant loss in the number of bacteria in the background | major reduction in the number of the cords; also recorded: rapidly reversed aggregation of MTB | more pronounced | over 90%
